Common to all, as to format: cell-based
The subject of test [1] is Hep3B hepatocellular carcinoma cells. The test is described as follows: 3H thymidine incorporation proliferation assay, Hep3B. As to conditions: Homo sapiens, 72 h. The protocol:
(§1) The human tumor cell lines were obtained from the American Type Culture Collection (ATCC), P.O. Box 1549, Manassas, Va. 20108, USA, and cultured according to instructions from ATCC. Cells were seeded at 1.0×10^4 cells/well in 96-well plates. […] Plates were allowed to incubate for 72 h. The plates were pulsed with 1.0 μCi of ^3H-thymidine per well for the last 24 hours of the total incubation period, harvested, and read on a Top Count Scintillation Counter (Packard Instruments, Meriden, Conn.). The EC50 values—the ADC concentration at which cell proliferation was reduced by 50%—were determined using PRISM™ software, version 4.0 (GraphPad Software, La Jolla, Calif., USA).
(Incorporation of labelled thymidine or its analogues reports DNA synthesis.)

The subject of test [2] is H446 small-cell lung cancer cells. The test is described as follows: 3H thymidine incorporation proliferation assay, H446. As to conditions: Homo sapiens, NCI-H446, 72 h. The protocol: as §1
Test [3] relates to HepG2 hepatocellular carcinoma cell line. Description: 3H thymidine incorporation proliferation assay, HepG2. Conditions: Homo sapiens; HepG2, Table 1. Here is the method:
as §1
(§2) The EC50 so values, along with those against HepG2 and HuH7D12 hepatocellular carcinoma cell lines, are shown in Table 1, plus data for the drug alone (formula (II)). […] That is, release of the drug from the conjugate is efficient.

For test [4], the system named is HuH7D12 hepatocellular carcinoma cell line. Description: 3H thymidine incorporation proliferation assay, HuH7D12. Conditions: Homo sapiens, Huh-7D12; HuH7D12, Table 1. Here is the method:
as §1, §2

Each structure is given as a SMILES string.

This note sets out measurements from US20170326249A1, “ANTIBODY-DRUG CONJUGATE OF AN ANTI-GLYPICAN-3 ANTIBODY AND A TUBULYSIN ANALOG, PREPARATION AND USES” (Bristol-Myers Squibb Company, priority 2016, published 2017).

With `CCCN(C(=O)[C@@H](NC(=O)[C@H]1CCCCN1C)[C@@H](C)CC)[C@H](C[C@@H](OC(C)=O)c1nc(C(=O)N[C@@H](Cc2ccc(N)cc2)C[C@H](C)C(=O)O)cs1)C(C)C` [Unconjugated Drug (II)], the 50% effective concentration (EC50) (as a rule, the midpoint of the concentration-response curve) was 0.2 nM in test [1], 0.2 nM in test [2], 0.3 nM in test [3] and 0.2 nM in test [4].
